Our source for the EC50 values is patent US9175003B2, “Substituted azoanthracene derivatives and intermediates for preparation thereof” (TransTech Pharma, LLC, priority 2009, dated 2015).

pEC50: −log10 of the molar value.

human GLP-1 receptor, sequence (P43220 24-463): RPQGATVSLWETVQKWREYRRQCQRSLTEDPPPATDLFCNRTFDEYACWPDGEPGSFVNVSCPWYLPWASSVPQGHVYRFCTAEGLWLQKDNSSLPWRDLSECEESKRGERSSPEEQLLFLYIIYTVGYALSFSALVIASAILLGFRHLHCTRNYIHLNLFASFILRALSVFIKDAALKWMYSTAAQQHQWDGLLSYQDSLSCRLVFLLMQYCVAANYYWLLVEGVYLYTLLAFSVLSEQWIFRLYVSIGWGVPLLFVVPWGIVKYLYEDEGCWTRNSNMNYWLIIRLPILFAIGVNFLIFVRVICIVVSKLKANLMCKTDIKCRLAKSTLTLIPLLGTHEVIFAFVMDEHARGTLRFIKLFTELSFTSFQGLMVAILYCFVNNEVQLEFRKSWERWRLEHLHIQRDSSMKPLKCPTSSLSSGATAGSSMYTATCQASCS

This assay concerns the target human GLP-1 receptor (Homo sapiens (Human), UniProt P43220). The settings on record: read-out: Mean EC50; cAMP, HTRF detection, 30 min at 37° C., HEK-293 cells expressing cloned human GLP-1 receptor. On the technique in general: Time-resolved FRET reads energy transfer from a long-lived donor to a nearby acceptor.
Take `Cc1nc(N)sc1S(=O)(=O)N1Cc2cc3c(cc2C[C@H]1C(=O)N[C@@H](Cc1ccc(-c2ccc(C#N)cc2)cc1)C(=O)O)OC[C@@H](c1ccc(OCc2ccc(Cl)c(Cl)c2)cc1)O3` [Example 60, (S)-2-({(3R,8S)-7-(2-Amino-4-methyl-thiazole-5-sulfonyl)-3-[4-(3,4-dichloro-benzyloxy)-phenyl]-2,3,6,7,8,9-hexahydro-[1,4]dioxino[2,3-g]isoquinoline-8-carbonyl}-amino)-3-(4′-cyano-biphenyl-4-yl)-propionic acid]: the pEC50 was 6.96.

As for `CNc1nc(C)c(S(=O)(=O)N2Cc3cc4c(cc3C[C@H]2C(=O)N[C@@H](Cc2ccc(-c3ccc(C#N)cc3)cc2)C(=O)O)OC[C@@H](c2ccc(OCc3ccc(Cl)c(Cl)c3)cc2)O4)s1` [Example 61, (S)-3-(4′-Cyano-biphenyl-4-yl)-2-{[(3R,8S)-3-[4-(3,4-dichloro-benzyloxy)-phenyl]-7-(4-methyl-2-methylamino-thiazole-5-sulfonyl)-2,3,6,7,8,9-hexahydro-[1,4]dioxino[2,3-g]isoquinoline-8-carbonyl]-amino}-propionic acid], the pEC50 was 7.14.

Take `CCNc1nc(C)c(S(=O)(=O)N2Cc3cc4c(cc3C[C@H]2C(=O)N[C@@H](Cc2ccc(-c3ccc(C#N)cc3)cc2)C(=O)O)OC[C@@H](c2ccc(OCc3ccc(Cl)c(Cl)c3)cc2)O4)s1` [Example 62, (S)-3-(4′-Cyano-biphenyl-4-yl)-2-{[(3R,8S)-3-[4-(3,4-dichloro-benzyloxy)-phenyl]-7-(2-ethylamino-4-methyl-thiazole-5-sulfonyl)-2,3,6,7,8,9-hexahydro-[1,4]dioxino[2,3-g]isoquinoline-8-carbonyl]-amino}-propionic acid]: the pEC50 was 6.48.

On to `Cc1nc(NC(=O)[C@@H]2CCCN2)sc1S(=O)(=O)N1Cc2cc3c(cc2C[C@H]1C(=O)N[C@@H](Cc1ccc(-c2ccc(C#N)cc2)cc1)C(=O)O)OCC(c1ccc(OCc2ccc(Cl)c(Cl)c2)cc1)O3` (stereo partly shown) [Example 71], for which the pEC50 was 6.32.

For the molecule `CC[C@@H](c1ccccc1)N1Cc2cc3c(cc2C[C@H]1C(=O)N[C@@H](Cc1ccc(-c2ccc(C#N)cc2)cc1)C(=O)O)OC[C@H](c1ccc(OCc2ccc(Cl)c(Cl)c2)cc1)O3` [Example 72, (S)-3-(4′-Cyano-biphenyl-4-yl)-2-{[(3S,8S)-3-[4-(3,4-dichloro-benzyloxy)-phenyl]-7-((S)-1-phenyl-propyl)-2,3,6,7,8,9-hexahydro-[1,4]dioxino[2,3-g]isoquinoline-8-carbonyl]-amino}-propionic acid], the pEC50 was 6.32.

For `CC[C@@H](c1ccccc1)N1Cc2cc3c(cc2C[C@H]1C(=O)N[C@@H](Cc1ccc(-c2ccncc2)cc1)C(=O)O)OC[C@H](c1ccc(OCc2ccc(Cl)c(Cl)c2)cc1)O3` [Example 73, (S)-2-{[(3S,8S)-3-[4-(3,4-Dichloro-benzyloxy)-phenyl]-7-((S)-1-phenyl-propyl)-2,3,6,7,8,9-hexahydro-[1,4]dioxino[2,3-g]isoquinoline-8-carbonyl]-amino}-3-(4-pyridin-4-yl-phenyl)-propionic acid], the pEC50 is 7.12.

For `Cc1nc(N)sc1S(=O)(=O)N1Cc2cc3c(cc2C[C@H]1C(=O)N[C@@H](Cc1ccc(-c2ccc(C#N)cc2)cc1)C(=O)O)OC[C@H](c1ccc(OCc2ccc(Cl)c(Cl)c2)cc1)O3` [Example 81, (S)-2-({(3S,8S)-7-(2-Amino-4-methyl-thiazole-5-sulfonyl)-3-[4-(3,4-dichloro-benzyloxy)-phenyl]-2,3,6,7,8,9-hexahydro-[1,4]dioxino[2,3-g]isoquinoline-8-carbonyl}-amino)-3-(4′-cyano-biphenyl-4-yl)-propionic acid], the pEC50 was 6.49.

On to `CNc1nc(C)c(S(=O)(=O)N2Cc3cc4c(cc3C[C@H]2C(=O)N[C@@H](Cc2ccc(-c3ccc(C#N)cc3)cc2)C(=O)O)OC[C@H](c2ccc(OCc3ccc(Cl)c(Cl)c3)cc2)O4)s1` [Example 85, (S)-3-(4′-Cyano-biphenyl-4-yl)-2-{[(3S,8S)-3-[4-(3,4-dichloro-benzyloxy)-phenyl]-7-(4-methyl-2-methylamino-thiazole-5-sulfonyl)-2,3,6,7,8,9-hexahydro-[1,4]dioxino[2,3-g]isoquinoline-8-carbonyl]-amino}-propionic acid], for which the pEC50 is 6.58.

Turning to `CCNc1nc(C)c(S(=O)(=O)N2Cc3cc4c(cc3C[C@H]2C(=O)N[C@@H](Cc2ccc(-c3ccc(C#N)cc3)cc2)C(=O)O)OC[C@H](c2ccc(OCc3ccc(Cl)c(Cl)c3)cc2)O4)s1` [Example 86, (S)-3-(4′-Cyano-biphenyl-4-yl)-2-{[(3S,8S)-3-[4-(3,4-dichloro-benzyloxy)-phenyl]-7-(2-ethylamino-4-methyl-thiazole-5-sulfonyl)-2,3,6,7,8,9-hexahydro-[1,4]dioxino[2,3-g]isoquinoline-8-carbonyl]-amino}-propionic acid], the pEC50 was 6.60.

For the molecule `COCCNc1nc(C)c(S(=O)(=O)N2Cc3cc4c(cc3C[C@H]2C(=O)N[C@@H](Cc2ccc(-c3ccc(C#N)cc3)cc2)C(=O)O)OC[C@H](c2ccc(OCc3ccc(Cl)c(Cl)c3)cc2)O4)s1` [Example 92, (S)-3-(4′-Cyano-biphenyl-4-yl)-2-({(3S,8S)-3-[4-(3,4-dichloro-benzyloxy)-phenyl]-7-[2-(2-methoxy-ethylamino)-4-methyl-thiazole-5-sulfonyl]-2,3,6,7,8,9-hexahydro-[1,4]dioxino[2,3-g]isoquinoline-8-carbonyl}-amino)-propionic acid], the pEC50 was 6.81.

With `COc1cc(C)ccc1S(=O)(=O)N1Cc2cc3c(cc2C[C@H]1C(=O)N[C@@H](Cc1ccc(-c2ccc(C#N)cc2)cc1)C(=O)O)OC[C@H](c1ccc(OCc2ccc(Cl)c(Cl)c2)cc1)O3` [Example 98, (S)-3-(4′-Cyano-biphenyl-4-yl)-2-{[(3S,8S)-3-[4-(3,4-dichloro-benzyloxy)-phenyl]-7-(2-methoxy-4-methyl-benzenesulfonyl)-2,3,6,7,8,9-hexahydro-[1,4]dioxino[2,3-g]isoquinoline-8-carbonyl]-amino}-propionic acid], the pEC50 is 6.42.

`CCC(=O)Nc1nc(C)c(S(=O)(=O)N2Cc3cc4c(cc3C[C@H]2C(=O)N[C@@H](Cc2ccc(-c3ccc(C#N)cc3)cc2)C(=O)O)OCC(c2ccc(OCc3ccc(Cl)c(Cl)c3)cc2)O4)s1` (stereo partly drawn) [Example 132, (S)-3-(4′-Cyano-biphenyl-4-yl)-2-{[(S)-3-[4-(3,4-dichloro-benzyloxy)-phenyl]-7-(4-methyl-2-propionylamino-thiazole-5-sulfonyl)-2,3,6,7,8,9-hexahydro-[1,4]dioxino[2,3g]isoquinoline-8-carbonyl]-amino}-propionic acid]: the pEC50 is 6.67.

On to `Cc1nc(N)ccc1S(=O)(=O)N1Cc2cc3c(cc2C[C@H]1C(=O)N[C@@H](Cc1ccc(-c2ccc(C#N)cc2)cc1)C(=O)O)OC[C@H](c1ccc(OCc2ccc(Cl)c(Cl)c2)cc1)O3` [Example 141, (S)-2-({(3S,8S)-7-(6-Amino-2-methyl-pyridine-3-sulfonyl)-3-[4-(3,4-dichloro-benzyloxy)-phenyl]-2,3,6,7,8,9-hexahydro-[1,4]dioxino[2,3-g]isoquinoline-8-carbonyl}-amino)-3-(4′-cyano-biphenyl-4-yl)-propionic acid], for which the pEC50 is 6.50.

Broadly, the pEC50 is the negative decadic logarithm of the EC50, by convention in mol/L.
